Source: patent publication US8962552B2, “Nanoparticles of therapeutic agents having low water solubility” (Centre Nationale de Recherche Scientifique, priority 2007, dated 2015)

What was measured:
[1] = test system: M109 subcutaneous tumoral model (murine pulmonary tumor); test: In vivo anticancer activity, M109 subcutaneous tumoral model; settings: 160 mg·kg^−1 i.v. for 5 consecutive days, CD2F1 mice, FIG. 2
Text: CD2F1 mice (4-5 weeks old) weighing about 15-18 g were used for this study. The mice are fed with standard mouse feed and water ad libitum. The M109 subcutaneous tumoral model (murine pulmonary tumor) is developed by injecting the M109 cells at exponential growth (1×10^6 cells) as a suspension, under the skin, into the lower portion of the abdomen of the mice. A palpable tumor (about 50-100 mm^3) is allowed to grow at the site of injection. The tumor-bearing mice are divided into 2 groups of 5-6, i.e. the untreated mice and the mice treated with squalenoyldiglycolyl-paclitaxel nanoparticles 160 mg·kg^−1 (injected intravenously for 5 consecutive days). The mice are controlled regularly to check the difference in the volume of the tumors, and thus to evaluate the anticancer efficacy.

[2] = Nanoparticle size, polydispersity index and surface potential by light scattering; type: physicochemical
Procedure: In general, the nanoparticles thus obtained have a mean size ranging from 30 to 650 nm, in particular from 30 to 500 nm and in particular from 50 to 250 nm, or even from 100 to 200 nm, measured by light scattering using a Coulter® N4MD nanosizer from Coulter Electronics, Hialeah, USA.
4 mg of squalenoylpaclitaxel are dissolved in […] of ethanol (2.5 mg/ml) and added dropwise with continuous stirring (speed of 500 rpm) to 1 ml of an aqueous solution containing 5% dextrose. The squalenoylpaclitaxel self-assembles in the form of nanoparticles with a size of between 100 and 200 nm. The ethanol is then completely evaporated off under reduced pressure using a Rotavapor® to obtain a nanoparticulate suspension of squalenoylpaclitaxel at a final concentration of 4 mg/ml.
Variable amounts (stated in Table 1 below) of squalenoylpaclitaxel are dissolved in 0.25 ml of tetrahydrofuran (THF). The solutions obtained are added dropwise with continuous stirring (speed of 500 rpm) to 0.25 ml of water. The squalenoylpaclitaxel precipitates in the form of nanoparticles between 100 and 200 nm in size. The THF is then completely evaporated off under reduced pressure using a Rotavapor® to obtain nanoparticulate squalenoylpaclitaxel suspensions whose size varies as a function of the concentration (see the table below).
100 μl of squalenoyldeoxyspergualine dissolved in ethanol (4 mg/ml) are added dropwise to 2 ml of distilled water with vigorous stirring. After evaporating off the ethanol under reduced pressure using a Rotavapor®, a suspension of nanoparticles 162 nm in size (polydispersity index 0.12 characterized by a surface potential of 27.38±2.60 mV) is obtained.
The mean size of the nanoparticles and the polydispersity index of the nanoparticles are determined at a temperature of 20° C. by light scattering with a zetasizer machine (Malvern Instruments, UK). The measurements are taken after diluting the nanoparticle suspension in MilliQ® water.

[3] = test system: Madison's 109 (M109) murine pulmonary tumor cell line; test: In vitro anticancer activity, MTT test on M109 cells; type: cell-based; settings: 72 hours, nanoparticles, read-out: 50% inhibitory concentration (IC50)
Procedure: (§1) The in vitro anticancer activity of the conjugates of squalenoyl/paclitaxel type in the form of nanoparticles is performed on Madison's 109 (M109) murine pulmonary tumor cell line. The M109 cells are cultured in RPMI 1640, supplemented with 10% fetal calf serum, 50 U·ml^−1 of penicillin and 50 μg·ml^−1 of streptomycin and 2 mM of L-glutamine. This analysis is performed using the 3-[4,5-dimethylthiazol-2-yl]-3,5-diphenyltetrazolium bromide (MTT) test, which measures the mitochondrial dehydrogenase activity. The cells in exponential growth phase are inoculated into a 96-well plate and preincubated for 24 hours at 37° C. in a humidified atmosphere with 5% CO2 in the air. Various dilutions of paclitaxel nanoparticles are added to the cells in the culture medium. Each dilution is tested three times. After 72 hours at 37° C., 200 μL of MTT solution in the cell culture medium (0.5 mg/ml) are added to each well. After incubating for 2 hours 30 minutes at 37° C., the culture medium is removed and the formazan crystals obtained are dissolved in 200 μL of an extraction solution (dimethyl sulfoxide). The absorbing power of the transformed dyestuff, which is proportional to the number of viable cells, is measured at 570 nm using a microplate reader (Metertech Σ 960, Fisher Bioblock, Illkirch, France). The percentage of surviving cells is calculated by determining the ratio of the absorbing power between the treated cells and the untreated cells.

[4] = test system: L1210 aggressive metastatic leukemia model; test: In vivo anticancer activity, L1210 aggressive metastatic leukemia model; settings: 13 mg·kg^−1 i.v. on days 1, 7 and 14, DBA/2 mice
Text: DBA/2 mice (4 to 5 weeks old) weighing about 15-18 g were used for this study. As for Example 17, the mice are fed with standard mouse feed and water ad libitum. The L1210 aggressive metastatic leukemia model (a murine leukemia) is developed by intravenously injecting the L1210 cells at exponential growth (0.1×10^6 cells) as a suspension, into the mice. The tumor-bearing mice are divided into 2 groups of 5-6, i.e. the untreated mice and the mice treated with squalenoyldoxorubicin nanoparticles (13 mg·kg^−1, injected intravenously on days 1, 7 and 14, after injection of the tumor cells). After treatment, the mice are controlled regularly to check the differences in weight and the survival rate, these parameters making it possible to evaluate the efficacy of the anticancer activity.

[5] = test system: L1210 WT murine leukemia cell line; test: In vitro anticancer activity, MTT test on L1210 WT cells; type: cell-based; settings: Mus musculus, 72 hours, nanoparticles, read-out: 50% inhibitory concentration (IC50)
Procedure: as §1, with “After incubating for 2 hours 30 minutes at 37° C., the culture medium is removed and the formazan crystals obtained are dissolved in 200 μL of an extraction solution (dimethyl sulfoxide).” left out
The in vitro anticancer activity of the squalenoyldoxorubicin nanoparticles is evaluated on an L1210 WT murine leukemia cell line. […]

[6] = test system: KB 3.1 cells; test: Tubulin immunofluorescence (spindle-poisoning activity) by confocal fluorescence microscopy; type: cell-based, human; settings: nanoparticles 5 μM, 14-16 hours, FIG. 1B
Procedure: The characterization of this activity is performed by immunofluorescence according to the following protocol:
Day 1: KB 3.1 cells originating from a human cervical carcinoma, and HT-29 cells corresponding to a human colon cancer cell line, are deposited on 6-well plates at a density of 20 000 cells/well (final volume 2 ml RPMI plus FCS). The cells are incubated at a temperature of 37° C. and at 5% CO2.
Day 2: The cells are rinsed and the squalenoylpaclitaxel nanoparticles (concentration 5 μM) as prepared according to the protocol described in Example 3 are added thereto.
Day 3: After 14-16 hours, rinsing is performed twice with PBS and the extraction solution (Triton X-100 plus 0.5% PEM-PIPES 100 mM, EGTA 2 mM, MgCl2 2 mM, pH 6.8) is then added. After 4 minutes, rinsing is performed, followed by addition of 2 ml of a 3% solution of formaldehyde in PEM. 40 minutes later, rinsing is performed and 20% FCS in PBS is added over 30 minutes. Murine anti-α-tubulin FITC monoclonal antibody (diluted to 1:200) is then added and the mixture is incubated for 1 hour. It is finally rinsed with PBS and an analysis by confocal fluorescence microscopy (Leica TCS SP2) is performed.

[7] = test system: mice (C57BL6); type: in vivo; settings: 4 mg/ml suspension i.v., 4×50 mg/kg (paclitaxel equivalent)
Procedure: The nanoparticulate squalenoylpaclitaxel suspension as prepared in Example 3 (4 mg/ml) is directly injected intravenously into mice (C57BL6) at a dose of 4×50 mg/kg (paclitaxel equivalent); the injections take place on days 0, 5, 9 and 14. […] The direct intravenous injection of the Taxol solution (without dilution in 0.9% NaCl) leads to the immediate death of 100% of the treated mice. When the Taxol solution is prediluted in 0.9% NaCl, the maximum dose that can be injected is 20 mg/kg.

[8] = 20° C., zetasizer, diluted in MilliQ water, compositions of Example 15
[9] = Example 9: 100 μl of 4 mg/ml ethanol solution added to 2 ml distilled water

In the case of “Squalenoyldiglycolyl-paclitaxel [Example 11]”, the “Anticancer activity: progression of tumor volume” value [1] is reported as “show anticancer activity by controlling the progression of the M109 tumors”, the Mean particle diameter [2, 8] is reported as 150.0 nm and the Polydispersity index [2, 8] is reported as 0.075. It also gave an IC50 [3] of 175 nM.
In the case of `COc1cccc2c1C(=O)c1c(O)c3c(c(O)c1C2=O)CC(O)(C(=O)COC(=O)CC/C(C)=C/CC/C(C)=C/CC/C=C(\C)CC/C=C(\C)CCC=C(C)C)CC3OC1CC(N)C(O)C(C)O1` (stereo not drawn) [Example 14, 14-squalenoyldoxorubicin], the Mean particle diameter [2, 8] is reported as 138.2 nm, the Polydispersity index [2, 8] is reported as 0.325 and the “Anticancer activity (variations in weight of mice)” value ([4]; FIG. 3) is reported as “demonstrate effective anticancer activity”. For the same molecule, the Survival rate ([4]; FIG. 4) was “improved survival rate” and the IC50 [5] was 291 nM.
For `CC(C)=CCC/C(C)=C/CC/C(C)=C/CC/C=C(\C)CC/C=C(\C)CCC(=O)NCCCNCCCCNC(=O)C(O)NC(=O)CCCCCCNC(=N)N` (stereo not drawn) [squalenoyldeoxyspergualine], the Polydispersity index [2, 9] was 0.12, the Size of nanoparticles [2, 9] was 162 nm and the Surface potential [2, 9] was 27.38±2.60 mV.
“Squalenoylsuccinyl-PEG340-paclitaxel [Example 12]” gave a Mean particle diameter [2, 8] of 643.9 nm, a Polydispersity index [2, 8] of 0.081 and an IC50 [3] of 490 nM.
Work on “squalenoylsuccinylpaclitaxel [Example 10]” yielded a Mean particle diameter [2, 8] of 250.9 nm, a Polydispersity index [2, 8] of 0.061 and an IC50 [3] of 72 nM.
Work on squalenoylC22-paclitaxel [Example 13] yielded a Mean particle diameter [2, 8] of 239.3 nm, a Polydispersity index [2, 8] of 0.077 and an IC50 [3] of 7300 nM.
Work on monosqualenoylpaclitaxel yielded a Polydispersity index ([2]; 0.36 mmol squalenoylpaclitaxel in 0.25 ml THF added to 0.25 ml water) of 0.39, a Polydispersity index ([2]; 0.88 mmol squalenoylpaclitaxel in 0.25 ml THF added to 0.25 ml water) of 0.30 and a Polydispersity index ([2]; 1.76 mmol squalenoylpaclitaxel in 0.25 ml THF added to 0.25 ml water) of 0.31. For the same molecule, the Diameter ([2]; 0.36 squalenoylpaclitaxel in 0.25 ml THF added to 0.25 ml water) was 151 ± 84 nm, the Diameter ([2]; 0.88 squalenoylpaclitaxel in 0.25 ml THF added to 0.25 ml water) was 169 ± 92 nm and the Diameter ([2]; 1.76 squalenoylpaclitaxel in 0.25 ml THF added to 0.25 ml water) was 177 ± 99 nm. The “Formation of tubulin lumps (spindle-poisoning activity)” value [6] was “formation of tubulin lumps is clearly visible”, the Signs of toxicity ([7]; days 0, 5, 9 and 14, C57BL6 mice) was “do not show any sign of toxicity” and the Mortality ([7]; days 0, 5, 9 and 14, period of at least one month) was “No mortality is recorded”.
